Structures are written as SMILES.

One assay addresses T1, Human TRPC6 (Homo sapiens, UniProt Q9Y210).
T1 construct: expressed in transfected cells
T1 sequence (Q9Y210 1-931): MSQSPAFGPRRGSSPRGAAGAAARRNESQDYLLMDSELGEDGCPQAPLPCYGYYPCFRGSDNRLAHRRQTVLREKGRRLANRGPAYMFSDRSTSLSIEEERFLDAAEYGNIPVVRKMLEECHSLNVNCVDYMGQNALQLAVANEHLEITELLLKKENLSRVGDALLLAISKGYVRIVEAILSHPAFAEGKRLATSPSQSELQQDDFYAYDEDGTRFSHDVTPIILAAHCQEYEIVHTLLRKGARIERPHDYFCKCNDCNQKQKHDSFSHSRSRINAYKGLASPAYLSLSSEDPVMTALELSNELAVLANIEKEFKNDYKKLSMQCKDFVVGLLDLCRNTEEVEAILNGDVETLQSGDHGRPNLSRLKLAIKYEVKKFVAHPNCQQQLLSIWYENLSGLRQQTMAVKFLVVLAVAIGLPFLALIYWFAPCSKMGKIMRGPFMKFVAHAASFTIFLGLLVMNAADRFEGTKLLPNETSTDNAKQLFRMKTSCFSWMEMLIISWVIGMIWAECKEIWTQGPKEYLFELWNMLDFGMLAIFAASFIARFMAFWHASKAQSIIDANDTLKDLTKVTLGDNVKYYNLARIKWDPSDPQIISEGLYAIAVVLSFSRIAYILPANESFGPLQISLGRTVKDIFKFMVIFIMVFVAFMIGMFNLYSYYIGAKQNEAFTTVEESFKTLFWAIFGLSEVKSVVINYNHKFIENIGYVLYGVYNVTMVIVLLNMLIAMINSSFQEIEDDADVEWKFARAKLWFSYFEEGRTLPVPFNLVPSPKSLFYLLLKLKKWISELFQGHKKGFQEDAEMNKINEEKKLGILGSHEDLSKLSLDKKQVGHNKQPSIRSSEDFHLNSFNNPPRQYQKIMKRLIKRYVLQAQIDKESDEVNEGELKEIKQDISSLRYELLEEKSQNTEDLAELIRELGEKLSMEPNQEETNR
The experiment in a line: Evaluation of TRPC6 channel inhibitory activity (1), FLIPR Calcium 5 Assay Kit, OAG stimulation (Compound Nos. 1-1293). In kind it is cell-based.
Conditions: not given
In outline: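 Cells stably expressing human TRPC6, plated 24 h before, were loaded 30 min with Calcium 5 dye plus probenecid in HEPES-HBSS. Compound was added 20 min before OAG (30 μM final) and fluorescence tracked on FLIPR. Inhibition normalised to no-compound and no-compound/no-OAG wells; pIC50 from four-parameter fit, reported as +/++/+++ categories.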
On to `Cc1cc(Oc2cc(C#N)ccc2-c2ncc(CCN)cn2)cc(N2C3CCC2COC3)n1` [compound 445, 4-[5-(2-aminoethyl)pyrimidin-2-yl]-3-[2-methyl-6-(3-oxa-8-azabicyclo[3.2.1]octan-8-yl)pyridin-4-yl]oxybenzonitrile], for which the IC50 is below 0.01 µM.

The assay is the same for the next values; noted with them: Human TRPC6 stably-expressing cells, OAG 30 μM, FLIPR Calcium 5 Assay Kit; read-out: Inhibitory activity (pIC50 class) (converted).
On to `N#Cc1ccc(-c2ncc(CN)cn2)c(Oc2nnc(-c3ccccc3)s2)c1` [compound 705, 4-[5-(aminomethyl)pyrimidin-2-yl]-3-[(5-phenyl-1,3,4-thiadiazol-2-yl)oxy]benzonitrile], for which the IC50 is 0.01 to 1 µM. For `N#Cc1ccc(-c2ccc(CCN)cc2)c(Oc2cnnc(-c3cccc(F)c3C#N)c2)c1` [Compound 84, 2-[5-[2-[4-(2-aminoethyl)phenyl]-5-cyanophenoxy]pyridazin-3-yl]-6-fluorobenzonitrile], the IC50 is 0.01 to 1 µM. As to `Cc1nc(Oc2cc(C#N)ccc2-c2ccc(CCN)nc2)cc(-c2ccccc2)n1` [Compound 75, 4-[6-(2-aminoethyl)pyridin-3-yl]-3-(2-methyl-6-phenylpyrimidin-4-yl)oxybenzonitrile], the IC50 is 0.01 to 1 µM. On to `Cc1cc(Oc2cc(C#N)ccc2-c2ccc(C3OCCCC3N)cn2)cc(N2CCOCC2)n1` (stereo not shown) [compound 539, 4-[5-(3-aminooxan-2-yl)pyridin-2-yl]-3-(2-methyl-6-morpholin-4-ylpyridin-4-yl)oxybenzonitrile], for which the IC50 was 0.01 to 1 µM. On the same count and under the same terms, the value for `Cn1nc(C2CC2)cc1Oc1cc(C#N)ccc1-c1ccc(OCCN)cn1` [compound 348, 4-[5-(2-aminoethoxy)pyridin-2-yl]-3-(5-cyclopropyl-2-methylpyrazol-3-yl)oxybenzonitrile] was below 0.01 µM; that for `N#Cc1ccc(-c2ncc(CN)cn2)c(Oc2nnc(N3CCCCC3)s2)c1` [compound 707, 4-[5-(aminomethyl)pyrimidin-2-yl]-3-[(5-piperidin-1-yl-1,3,4-thiadiazol-2-yl)oxy]benzonitrile] was 0.01 to 1 µM; that for `Cc1nc(C2CCOCC2)cn1Cc1cc(C#N)ccc1-c1ccc([C@H](O)CN)cn1` [compound 1165] was above 1 µM. As for `N#Cc1ccc(-c2ncc(CCN)cn2)c(C(=O)c2cnn(-c3ncccn3)c2)c1` [compound 1052, 4-[5-(2-aminoethyl)pyrimidin-2-yl]-3-(1-pyrimidin-2-ylpyrazole-4-carbonyl)benzonitrile], the IC50 was 0.01 to 1 µM.

`NCCc1cnc(-c2ccc(F)cc2C(=O)c2cnn(CC(F)F)c2)nc1` [compound 1098, [2-[5-(2-aminoethyl)pyrimidin-2-yl]-5-fluorophenyl]-[1-(2,2-difluoroethyl)pyrazol-4-yl]methanone]: the IC50 is above 1 µM. As for `COC(CN)c1ccc(-c2ccc(C#N)cc2Oc2cc(N3CCOCC3)nc(C)n2)cc1` (stereo not shown) [Compound 11, 4-[4-(2-Amino-1-methoxyethyl)phenyl]-3-(2-methyl-6-morpholin-4-ylpyrimidin-4-yl)oxybenzonitrile], the IC50 is below 0.01 µM. Still for that read-out and setting: the value for `Cn1nc(N2CCOCC2)cc1Oc1cc(C#N)ccc1-c1ccc(CN)cn1` [compound 773, 4-[5-(aminomethyl)pyridin-2-yl]-3-(2-methyl-5-morpholin-4-ylpyrazol-3-yl)oxybenzonitrile] was below 0.01 µM; that for `N#Cc1ccc(-c2ccc(CN)cc2)c(Nc2cc(-c3ccccc3)ncn2)c1` [Compound 1, 4-[4-(aminomethyl)phenyl]-3-[(6-phenylpyrimidin-4-yl)amino]benzonitrile] was 0.01 to 1 µM.

As for `Cc1nc(-c2cccc(F)c2)cn1Cc1cc(C#N)ccc1-c1ccc([C@H](O)CN)cn1` [compound 1161, 4-[5-[(1S)-2-amino-1-hydroxyethyl]pyridin-2-yl]-3-[[4-(3-fluorophenyl)-2-methylimidazol-1-yl]methyl]benzonitrile], the IC50 is 0.01 to 1 µM. Still for that read-out and setting: the value for `Cn1nc(C2CC2)cc1Oc1cc(C#N)ccc1-c1ccc(CCN)cn1` [Compound 202, 4-[5-(2-aminoethyl)pyridin-2-yl]-3-(5-cyclopropyl-2-methylpyrazol-3-yl)oxybenzonitrile] was below 0.01 µM; that for `Cc1cc(Oc2cc(C#N)ccc2-c2cnc(CN)cn2)cc(N2CCOCC2)n1` [compound 332, 4-[5-(aminomethyl)pyrazin-2-yl]-3-(2-methyl-6-morpholin-4-ylpyridin-4-yl)oxybenzonitrile] was 0.01 to 1 µM; that for `Cc1nc(Oc2cc(C#N)ccc2-c2ccc(C(O)CN)cc2C)cc(N2CCOCC2)n1` (stereo not shown) [Compound 157, 4-[4-(2-amino-1-hydroxyethyl)-2-methylphenyl]-3-(2-methyl-6-morpholin-4-ylpyrimidin-4-yl)oxybenzonitrile] was below 0.01 µM.

With `Cc1nc(Sc2cc(C#N)ccc2-c2ncc(CCN)cn2)cc(N2CCCCC2)n1` [compound 1255, 4-[5-(2-aminoethyl)pyrimidin-2-yl]-3-(2-methyl-6-piperidin-1-ylpyrimidin-4-yl)sulfanylbenzonitrile], the IC50 is below 0.01 µM. The same measure, in the same setting: next, `N#Cc1ccc(-c2ncc(CN)cn2)c(C(=O)c2nnc(N3CCOCC3)s2)c1` [compound 1095, 4-[5-(aminomethyl)pyrimidin-2-yl]-3-(5-morpholin-4-yl-1,3,4-thiadiazole-2-carbonyl)benzonitrile]: above 1 µM; `Cc1nc(OCC2CCCCC2)cc(Oc2cc(C#N)ccc2-c2ccc(CCN)cc2)n1` [Compound 39, 4-[4-(2-aminoethyl)phenyl]-3-[6-(cyclohexylmethoxy)-2-methylpyrimidin-4-yl]oxybenzonitrile]: above 1 µM; `Cn1nc(C2CCC2)cc1Oc1cc(C#N)ccc1-c1ccc(C(F)(F)CN)cn1` [Compound 294, 4-[5-(2-amino-1,1-difluoroethyl)pyridin-2-yl]-3-(5-cyclobutyl-2-methylpyrazol-3-yl)oxybenzonitrile]: below 0.01 µM. On the same count and under the same terms, next, `N#Cc1ccc(-c2ccc(CCN)cc2)c(Oc2cnnc(N3CCCCC3)c2)c1` [Compound 66, 4-[4-(2-aminoethyl)phenyl]-3-(6-piperidin-1-ylpyridazin-4-yl)oxybenzonitrile]: below 0.01 µM; `Cc1nc(Oc2cc(C#N)ccc2-c2ncc(CCN)cn2)cc(O[C@@H]2CCOC2)n1` [compound 889, 4-[5-(2-aminoethyl)pyrimidin-2-yl]-3-[2-methyl-6-[(3R)-oxolan-3-yl]oxypyrimidin-4-yl]oxybenzonitrile]: above 1 µM; `N#Cc1ccc(-c2ccc(CCN)cc2)c(Sc2cnnc(N3CCOCC3)c2)c1` [compound 1239, 4-[4-(2-aminoethyl)phenyl]-3-(6-morpholin-4-ylpyridazin-4-yl)sulfanylbenzonitrile]: below 0.01 µM.

Take `Cn1nc(C(C)(C)C)cc1Oc1cc(C#N)ccc1-c1ccc([C@H](O)CN)cn1` [compound 405, 4-[5-[(1S)-2-amino-1-hydroxyethyl]pyridin-2-yl]-3-(5-tert-butyl-2-methylpyrazol-3-yl)oxybenzonitrile]: the IC50 was below 0.01 µM.

Consider `Cn1nc(-c2ccccc2)cc1Oc1cc(C#N)ccc1-c1ccc(CCN)cn1` [Compound 175, 4-[5-(2-aminoethyl)pyridin-2-yl]-3-(2-methyl-5-phenylpyrazol-3-yl)oxybenzonitrile], for which the IC50 was below 0.01 µM. The same measure, in the same setting: the value for `Cn1nc(C2CCC2)cc1Oc1cc(C#N)ccc1-c1ccc(C(O)CN)cn1` (stereo not shown) [Compound 276, 4-[5-(2-amino-1-hydroxyethyl)pyridin-2-yl]-3-(5-cyclobutyl-2-methylpyrazol-3-yl)oxybenzonitrile] was below 0.01 µM; that for `Cc1nn(CC2CC2)cc1C(=O)c1cc(C#N)ccc1-c1ncc(CN)cn1` [compound 1035, 4-[5-(aminomethyl)pyrimidin-2-yl]-3-[1-(cyclopropylmethyl)-3-methylpyrazole-4-carbonyl]benzonitrile] was below 0.01 µM. The same measure, in the same setting: next, `Cc1nc(Oc2cc(C#N)ccc2-c2ccc(CCN)cc2)cc(OC2CCCC2)n1` [Compound 45, 4-[4-(2-aminoethyl)phenyl]-3-(6-cyclopentyloxy-2-methylpyrimidin-4-yl)oxybenzonitrile]: 0.01 to 1 µM; `Cn1nc(-c2ccccc2)cc1Oc1cc(C#N)ccc1-c1ccc(C(N)CO)cn1` (stereo not shown) [compound 469, 4-[5-(1-amino-2-hydroxyethyl)pyridin-2-yl]-3-(2-methyl-5-phenylpyrazol-3-yl)oxybenzonitrile]: below 0.01 µM; `N#Cc1ccc(-c2ccc(CCN)cn2)c(Sc2cnnc(N3CCCC3)c2)c1` [compound 1244, 4-[5-(2-aminoethyl)pyridin-2-yl]-3-(6-pyrrolidin-1-ylpyridazin-4-yl)sulfanylbenzonitrile]: below 0.01 µM.
